From ChEMBL document CHEMBL4251711, “Bioactive Indolocarbazoles from the Marine-Derived Streptomyces sp. DT-A61” (J Nat Prod, 2018)

Legend:
PC-3 = experiment: Cytotoxicity against human PC3 cells after 72 hrs by SRB assay; type: functional, cell-based; settings: PC-3, 72 h
[1] = target: T1, Mitogen-activated protein kinase kinase kinase 5 (Homo sapiens, UniProt Q99683); experiment: Inhibition of ASK1 (unknown origin) by HTRF assay
T1 sequence (Q99683 whole entry): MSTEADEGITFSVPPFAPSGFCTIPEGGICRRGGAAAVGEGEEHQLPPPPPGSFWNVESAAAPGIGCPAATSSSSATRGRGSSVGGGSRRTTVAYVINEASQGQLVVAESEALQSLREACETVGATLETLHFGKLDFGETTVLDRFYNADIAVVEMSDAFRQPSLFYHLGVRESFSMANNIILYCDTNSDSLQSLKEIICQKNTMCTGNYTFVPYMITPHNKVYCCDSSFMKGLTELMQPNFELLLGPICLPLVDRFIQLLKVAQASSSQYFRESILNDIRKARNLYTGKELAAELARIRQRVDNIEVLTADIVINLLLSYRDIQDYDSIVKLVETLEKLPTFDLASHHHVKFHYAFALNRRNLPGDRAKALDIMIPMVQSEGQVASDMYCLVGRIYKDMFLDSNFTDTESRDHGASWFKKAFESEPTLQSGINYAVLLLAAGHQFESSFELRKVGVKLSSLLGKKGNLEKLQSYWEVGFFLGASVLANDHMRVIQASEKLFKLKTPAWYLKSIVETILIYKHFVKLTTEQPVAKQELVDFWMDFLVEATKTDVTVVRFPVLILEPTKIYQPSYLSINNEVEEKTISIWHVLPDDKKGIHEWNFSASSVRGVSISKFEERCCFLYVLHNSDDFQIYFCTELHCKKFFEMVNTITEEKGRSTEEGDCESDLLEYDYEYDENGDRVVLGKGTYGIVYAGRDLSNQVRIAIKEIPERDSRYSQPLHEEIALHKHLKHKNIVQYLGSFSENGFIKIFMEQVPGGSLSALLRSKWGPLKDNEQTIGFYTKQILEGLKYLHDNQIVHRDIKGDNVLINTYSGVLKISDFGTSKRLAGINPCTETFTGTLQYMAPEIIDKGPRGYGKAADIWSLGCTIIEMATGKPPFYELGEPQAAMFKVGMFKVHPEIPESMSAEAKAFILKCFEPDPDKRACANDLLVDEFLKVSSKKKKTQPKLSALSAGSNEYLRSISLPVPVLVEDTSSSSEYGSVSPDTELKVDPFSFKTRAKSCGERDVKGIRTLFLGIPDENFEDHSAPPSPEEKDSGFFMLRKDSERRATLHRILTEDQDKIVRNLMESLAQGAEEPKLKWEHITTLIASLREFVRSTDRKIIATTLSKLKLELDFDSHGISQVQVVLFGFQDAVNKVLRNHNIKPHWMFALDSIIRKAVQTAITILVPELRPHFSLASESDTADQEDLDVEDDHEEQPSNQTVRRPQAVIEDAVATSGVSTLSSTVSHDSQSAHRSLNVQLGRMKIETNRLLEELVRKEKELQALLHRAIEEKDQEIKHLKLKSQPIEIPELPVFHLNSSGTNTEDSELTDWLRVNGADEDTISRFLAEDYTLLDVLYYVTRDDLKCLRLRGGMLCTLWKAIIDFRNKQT

[2] = target: Rho-associated protein kinase 2 (Homo sapiens, UniProt O75116); experiment: Inhibition of ROCK2 (unknown origin) by HTRF assay
[3] = target: Protein kinase C alpha type (Homo sapiens, UniProt P17252); experiment: Inhibition of PKCalpha (unknown origin) by HTRF assay

Sequence of Rho-associated protein kinase 2 (O75116 whole entry): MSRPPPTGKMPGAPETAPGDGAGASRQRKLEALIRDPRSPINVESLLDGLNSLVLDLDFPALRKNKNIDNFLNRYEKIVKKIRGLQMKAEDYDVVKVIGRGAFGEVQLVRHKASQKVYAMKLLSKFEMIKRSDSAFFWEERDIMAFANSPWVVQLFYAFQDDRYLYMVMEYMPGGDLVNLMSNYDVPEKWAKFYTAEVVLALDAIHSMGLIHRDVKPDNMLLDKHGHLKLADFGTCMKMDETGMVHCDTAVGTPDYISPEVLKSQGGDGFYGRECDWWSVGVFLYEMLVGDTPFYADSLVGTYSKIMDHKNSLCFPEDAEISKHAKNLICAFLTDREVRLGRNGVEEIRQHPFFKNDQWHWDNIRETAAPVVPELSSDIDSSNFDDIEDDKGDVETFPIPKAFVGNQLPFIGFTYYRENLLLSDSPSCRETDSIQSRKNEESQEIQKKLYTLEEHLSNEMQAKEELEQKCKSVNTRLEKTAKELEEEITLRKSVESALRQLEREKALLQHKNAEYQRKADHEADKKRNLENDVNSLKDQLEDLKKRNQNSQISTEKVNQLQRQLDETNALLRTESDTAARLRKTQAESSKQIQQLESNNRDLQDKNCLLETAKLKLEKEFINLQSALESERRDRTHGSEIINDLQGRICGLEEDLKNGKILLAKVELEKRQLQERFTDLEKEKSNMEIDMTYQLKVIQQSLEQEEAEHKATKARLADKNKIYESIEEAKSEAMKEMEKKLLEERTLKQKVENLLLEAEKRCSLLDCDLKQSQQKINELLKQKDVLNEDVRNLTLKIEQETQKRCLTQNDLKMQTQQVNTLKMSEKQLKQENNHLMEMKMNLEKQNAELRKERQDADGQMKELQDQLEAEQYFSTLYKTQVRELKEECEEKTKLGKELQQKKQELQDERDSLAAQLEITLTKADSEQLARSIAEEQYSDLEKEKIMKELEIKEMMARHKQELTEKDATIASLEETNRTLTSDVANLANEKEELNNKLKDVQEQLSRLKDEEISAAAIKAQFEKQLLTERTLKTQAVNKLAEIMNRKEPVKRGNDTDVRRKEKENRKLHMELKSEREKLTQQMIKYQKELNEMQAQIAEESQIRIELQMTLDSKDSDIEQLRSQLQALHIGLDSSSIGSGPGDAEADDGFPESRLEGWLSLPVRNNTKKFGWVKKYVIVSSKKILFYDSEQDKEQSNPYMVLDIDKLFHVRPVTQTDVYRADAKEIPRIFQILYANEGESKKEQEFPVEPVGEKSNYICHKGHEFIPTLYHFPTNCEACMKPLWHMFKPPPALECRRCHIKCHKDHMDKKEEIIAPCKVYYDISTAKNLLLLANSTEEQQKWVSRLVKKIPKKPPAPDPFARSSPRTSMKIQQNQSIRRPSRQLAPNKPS

SMILES	IC50 (PC-3)	IC50 [1]	IC50 [2]	IC50 [3]
CC(=O)N[C@H]1C[C@H]2O[C@@](C)([C@@H]1O)n1c3ccccc3c3c4c(c5c6ccccc6n2c5c31)C(=O)NC4	0.16 µM	0.77 µM	0.26 µM	0.092 µM
CC(=O)N[C@@H]1C[C@H](n2c3ccccc3c3c4c(c5c6cc(O)ccc6[nH]c5c32)CNC4=O)O[C@@H](C)[C@@H]1O	–	> 50 µM	1.4 µM	0.097 µM
C[C@H]1O[C@@H]2C[C@](O)([C@H]1O)n1c3ccccc3c3c4c(c5c6cc(O)ccc6n2c5c31)C(=O)NC4	5.6 µM	> 50 µM	0.34 µM	1.4 µM
COC1NC(=O)c2c1c1c3ccccc3[nH]c1c1[nH]c3ccc(O)cc3c21 (stereo not given)	18 µM	> 50 µM	0.91 µM	1.4 µM
O=C1NCc2c1c1c3ccccc3[nH]c1c1[nH]c3ccc(O)cc3c21	8 µM	0.74 µM	0.34 µM	0.98 µM
CC(=O)N[C@@H]1C[C@H](n2c3ccc(O)cc3c3c4c(c5c6ccccc6[nH]c5c32)CNC4=O)O[C@@H](C)[C@@H]1O	3.6 µM	6.4 µM	0.04 µM	0.46 µM
C[C@@H]1O[C@@H](n2c3ccc(O)cc3c3c4c(c5c6ccccc6[nH]c5c32)CNC4=O)C[C@@H](N)[C@H]1O	3.1 µM	1.1 µM	0.15 µM	0.079 µM
C[C@@H]1O[C@@H]2C[C@](O)([C@H]1O)n1c3ccccc3c3c4c(c5c6cc(O)ccc6n2c5c31)C(=O)NC4	39 µM	4.1 µM	0.97 µM	2.1 µM
O=C1NCc2c1c1c3cc(O)ccc3[nH]c1c1[nH]c3ccccc3c21	21 µM	3 µM	0.0057 µM	3.2 µM
